Assay results published in publication PMC5803215, “Structural basis for amino acid transport by the CAT family of SLC7 transporters” (Nature Communications, 2018).
Positions count from the first letter of the chain named.

Legend:
GkApcT [1] = molecular target: T1, GkApcT (Geobacillus kaustophilus, UniProt Q5L1G5); experiment: electrogenic 3H-L-Ala uptake competition in proteoliposomes; type: biochemical
T1 construct: gene GK0930; cleavable GFP-His tag (pWaldo-GFP) removed with TEV; expressed in E. coli C43(DE3); co-purifies with E. coli MgtS; purified in DM/DDM, reconstituted in POPE:POPG liposomes
T1 sequence (Q5L1G5 1-471): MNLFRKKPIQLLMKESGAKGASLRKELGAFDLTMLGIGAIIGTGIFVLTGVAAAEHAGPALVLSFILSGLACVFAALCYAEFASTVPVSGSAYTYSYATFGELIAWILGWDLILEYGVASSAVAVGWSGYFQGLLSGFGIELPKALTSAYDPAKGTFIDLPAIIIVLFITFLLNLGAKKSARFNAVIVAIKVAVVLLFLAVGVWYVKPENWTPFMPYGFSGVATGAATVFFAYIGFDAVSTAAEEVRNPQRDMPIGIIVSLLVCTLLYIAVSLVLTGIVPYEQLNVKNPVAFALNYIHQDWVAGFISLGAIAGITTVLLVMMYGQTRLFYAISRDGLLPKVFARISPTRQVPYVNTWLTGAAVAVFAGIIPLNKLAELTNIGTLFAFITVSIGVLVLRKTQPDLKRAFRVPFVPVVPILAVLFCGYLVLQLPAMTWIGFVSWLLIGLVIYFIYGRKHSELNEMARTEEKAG

GkApcT [2] = molecular target: T2, GkApcT (Geobacillus kaustophilus, UniProt Q5L1G5, M321S); experiment: as above; type: biochemical
T2 construct: gene GK0930; cleavable GFP-His tag (pWaldo-GFP) removed with TEV; expressed in E. coli C43(DE3); co-purifies with E. coli MgtS; purified in DM/DDM, reconstituted in POPE:POPG liposomes
T2 sequence (Q5L1G5 1-471 M321S): T1 sequence (Q5L1G5 1-471) with M321S

GkApcT [3] = molecular target: T3, GkApcT (Geobacillus kaustophilus, UniProt Q5L1G5, K191N); experiment: thermal stability (nanoDSF); type: binding; details: 10 mM L-Ala; pH 6.0
T3 construct: gene GK0930; cleavable GFP-His tag (pWaldo-GFP) removed with TEV; expressed in E. coli C43(DE3); co-purifies with E. coli MgtS; purified in DM/DDM, reconstituted in POPE:POPG liposomes
T3 sequence (Q5L1G5 entry or part of it K191N): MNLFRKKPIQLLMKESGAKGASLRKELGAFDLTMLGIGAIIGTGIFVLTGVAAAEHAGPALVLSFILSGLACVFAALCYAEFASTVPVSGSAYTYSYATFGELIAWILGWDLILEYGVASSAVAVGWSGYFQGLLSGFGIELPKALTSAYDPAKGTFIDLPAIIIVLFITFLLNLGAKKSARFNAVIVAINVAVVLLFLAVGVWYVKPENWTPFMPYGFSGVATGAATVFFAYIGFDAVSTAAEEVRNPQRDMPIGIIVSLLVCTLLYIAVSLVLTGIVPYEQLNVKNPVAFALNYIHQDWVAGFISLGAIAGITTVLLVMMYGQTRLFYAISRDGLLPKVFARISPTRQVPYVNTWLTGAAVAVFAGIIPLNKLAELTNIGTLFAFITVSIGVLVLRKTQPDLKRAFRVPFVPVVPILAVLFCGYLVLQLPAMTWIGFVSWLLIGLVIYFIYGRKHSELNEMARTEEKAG

GkApcT [4] = molecular target: T4, GkApcT (Geobacillus kaustophilus, UniProt Q5L1G5, R334E); experiment: electrogenic 3H-L-Ala uptake competition in proteoliposomes; type: biochemical
T4 construct: gene GK0930; cleavable GFP-His tag (pWaldo-GFP) removed with TEV; expressed in E. coli C43(DE3); co-purifies with E. coli MgtS; purified in DM/DDM, reconstituted in POPE:POPG liposomes
T4 sequence (Q5L1G5 entry or part of it R334E): as the sequence (Q5L1G5 entry or part of it K191N) above, with N191K, R334E counted along it

GkApcT [5] = molecular target: T5, GkApcT (Geobacillus kaustophilus, UniProt Q5L1G5, K191R); experiment: thermal stability (nanoDSF); type: binding; details: 10 mM L-Ala; pH 6.0
T5 construct: gene GK0930; cleavable GFP-His tag (pWaldo-GFP) removed with TEV; expressed in E. coli C43(DE3); co-purifies with E. coli MgtS; purified in DM/DDM, reconstituted in POPE:POPG liposomes
T5 sequence (Q5L1G5 entry or part of it K191R): as the sequence (Q5L1G5 entry or part of it K191N) above, with N191R counted along it

GkApcT [6] = molecular target: T6, GkApcT (Geobacillus kaustophilus, UniProt Q5L1G5, K191A); experiment: thermal stability (nanoDSF); type: binding; details: 10 mM L-Ala; pH 6.0
T6 construct: gene GK0930; cleavable GFP-His tag (pWaldo-GFP) removed with TEV; expressed in E. coli C43(DE3); co-purifies with E. coli MgtS; purified in DM/DDM, reconstituted in POPE:POPG liposomes
T6 sequence (Q5L1G5 entry or part of it K191A): as the sequence (Q5L1G5 entry or part of it K191N) above, with N191A counted along it

GkApcT [7] = molecular target: T7, GkApcT (Geobacillus kaustophilus, UniProt Q5L1G5, E115Q); experiment: thermal stability (nanoDSF); type: binding; details: 10 mM L-Ala; pH 6.0
T7 construct: gene GK0930; cleavable GFP-His tag (pWaldo-GFP) removed with TEV; expressed in E. coli C43(DE3); co-purifies with E. coli MgtS; purified in DM/DDM, reconstituted in POPE:POPG liposomes
T7 sequence (Q5L1G5 entry or part of it E115Q): as the sequence (Q5L1G5 entry or part of it K191N) above, with E115Q, N191K counted along it

GkApcT [8] = molecular target: T1, GkApcT; experiment: thermal stability (nanoDSF); type: binding; details: 10 mM L-Ala; pH 6.0
GkApcT-MgtS heterodimer [9] = molecular target: T8, GkApcT-MgtS heterodimer (Geobacillus kaustophilus, UniProt A5A616+Q5L1G5); experiment: X-ray crystal structure; type: binding; details: site between GkApcT TM5 and MgtS; cholesterol-doped monoolein LCP
T8 construct: gene GK0930; heterodimer of G. kaustophilus GkApcT with host-derived E. coli MgtS (YneM); GFP-His tag cut with TEV; expressed in E. coli C43(DE3)
T8 sequence (Q5L1G5 1-471): T1 sequence (Q5L1G5 1-471)
T8 sequence (A5A616 1-31): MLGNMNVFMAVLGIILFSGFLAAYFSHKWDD

GkApcT-MgtS heterodimer [10] = molecular target: T8, GkApcT-MgtS heterodimer; experiment: thermal stability (circular dichroism); type: binding; details: pH 6.5

N=C(N)NCCC[C@H](N)C(=O)O [L-arginine]
IC50 (GkApcT [1]): 6000 µM
IC50 (GkApcT [2]): 11.4 µM

C[C@H](N)C(=O)O [L-Alanine]
dTm (GkApcT [3]): A similar stabilising effect was also observed in the Lys191Ala, Arg and Asn variants
IC50 (GkApcT [1]): 2 µM
IC50 (GkApcT [4]): 0.4 µM
dTm (GkApcT [5]): A similar stabilising effect was also observed in the Lys191Ala, Arg and Asn variants
dTm (GkApcT [6]): A similar stabilising effect was also observed in the Lys191Ala, Arg and Asn variants
dTm (GkApcT [7]): Glu115Gln variant can still recognise alanine to the same extent as wild-type protein
Tm with ligand (GkApcT [8]): ~58 to ~69

CC(C)CCC[C@@H](C)[C@H]1CC[C@H]2[C@@H]3CC=C4C[C@@H](O)CC[C@]4(C)[C@H]3CC[C@]12C [cholesterol]
X-ray crystal structure (GkApcT-MgtS heterodimer [9]): we observed density for a cholesterol molecule in this pocket

CC(C)CCC[C@@H](C)[C@H]1CC[C@H]2[C@@H]3CC=C4C[C@@H](OC(=O)CCC(=O)O)CC[C@]4(C)[C@H]3CC[C@]12C [cholesterol hemisuccinate]
Tm with ligand (GkApcT-MgtS heterodimer [10]): 57 to 72 °C
